In patent publication US9023788B2, “Methods compounds and pharmaceutical compositions for treating anxiety and mood disorders” (New York University, priority 2010, dated 2015):
Where two headings read alike, the source gives them in different places. Marks after values point to notes of the source that are not given here.

Key:
[1] = test system: mice; test: Elevated plus-maze test; type: in vivo, mouse; details: dp6FNE 0, 1, 3, 10 mg/kg i.p. plus phentolamine 1 mg/kg; Example 6, expected
Description: (§1) To verify that dp6FNE has anxiolytic effects this agent is tested in both the light/dark box (Shimada, et al., Gen Pharmac 1995; 26: 205-210) and elevated plus-maze (Pellow, et al., J Neurosci Methods 1985; 14: 149-167). […] For the plus-maze, the animal is placed in the center section of the maze and videotaped to determine both number of entries and time spent in the open and closed arms of the maze.

[2] = in vivo; cited from earlier work
[3] = test system: Swiss Webster male mice; test: Repeated open space forced swim (RFS) test; details: for overall effect of antagonist pretreatment on distance swum / overall effect of antagonist pretreatment on immobility: prazosin 5 mg/kg or atipamezole 0.5 mg/kg i.p.
Description: (§2) In experiment on chronic administration, a daily dose of 0.5 mg/kg in the same vehicle was administered for 11 d.
(§3) Infusion procedure. All experiments were performed between 1000 and 1400 hr. […] A total of 350 n1 of solution was infused at 100 nl/min over a 3.5 min period with the cannula remaining in place for 30 seconds after infusion. The animal was then subjected to the behavioral tests described below making the interval between the start of infusion and start of behavioral test 4.5-5 min. […] All drugs were prepared freshly each day in saline.
In this procedure, mice are swum for 15-20 min/d for 4 d in rat tub cages (24×43×23 cm, w×h×l) filled with 13 cm high luke-warm water (32-34° C.) and thereafter once or twice a week. […] In the present experiment, the animals were matched on immobility level of the 4th swim into vehicle and drug groups and infused ivt. just prior to the 5th swim. Groups given i.p. injections were dosed initially 5 min after the 4th swim and finally 30 min prior to the 5th swim. Discs were rated as above on immobility and distance swum (number of quadrants entered).

[4] = test system: mice; test: Light/dark box test; type: in vivo, mouse; details: dp6FNE 0, 1, 3, 10 mg/kg i.p. plus phentolamine 1 mg/kg; Example 6, expected
Description: as §1

[5] = test system: handling-stressed mice; test: Home cage activity after handling and injection stress; type: in vivo, mouse; details: acute i.p. dp6FNE 1 mg/kg in the presence of phentolamine; cirazoline 0.1 mg/kg; FIG. 3
Description: FIG. 3 depicts the effect of acute i.p. dp6FNE (1 mg/kg) or cirazoline (0.1 mg/kg), (both N=1), on home cage activity in terms of rearing and ambulation, Veh (N=12).
It is known that peripheral administration of α1-agonists without phentolamine impairs exploratory behavior in the open field (Yang, et al., J Pharmacol exp Ther 1990; 255: 1064-1070).

[6] = test system: Swiss Webster male mice; test: Open field motor activity and anxiety (i.p. dp6FNE/prazosin); type: in vivo, mouse; details: 1 h; dp6FNE 0.1-3 mg/kg/prazosin; amphetamine 2 mg/kg i.p.
Description: For purposes of comparison, some animals received instead d-amphetamine, 2 mg/kg, i.p. Total quadrants entered and time in the center area of the field as a ratio to the total distance traveled were rated from videorecordings.

[7] = test system: Swiss Webster male mice; test: Observation for sedation and signs of toxicity; type: in vivo, mouse
Description: Sedation interferes with behavioral performance and is therefore a detrimental side effect to the treatment of major depressive illness in humans.
Although dp6FNE was designed to be a temporary treatment, it was of interest to determine how long it would remain effective if given repeatedly.

[8] = test system: Swiss Webster male mice; test: Tail suspension test; type: in vivo, mouse; details: for effect of coinfused antagonist on anti-immobility effect of 6FNE: 6FNE 3 nmoles + antagonist 1 nmole ivt.; for effect of antagonist alone on immobility (antagonist+vehicle versus vehicle-only): antagonist 1 nmole ivt.; for immobility versus vehicle: acute ivt. 6FNE or DEX, DMI subacute i.p. 10 mg/kg, 10 mg/kg
Description: as §2, §3
Tail suspension test: The procedure of Stem, et al., Psychopharmacology 1985; 85: 367-370 was used. Immediately following intraventricular infusion or 30 min after the third i.p. injection, the animals were taped by the tail 72 cm above a padded platform for 6 min during which time they were videorecorded. Disks were subsequently rated blind as above for times immobile during the last 4 min of the test.

[9] = Chronic mild stress (CMS)-anhedonia model, sweetened milk consumption; type: in vivo; details: FIG. 5
Description: The latter property may actually be beneficial as it would counter the weight gain frequently reported with antidepressant treatment (Richelson, Mayo Clin Proc 2001; 76: 511-527).

[10] = test system: mice; details: months of chronic treatment (Doze et al. 2009); cited from earlier work
[11] = test system: mice; details: given chronically in the drinking water; cited from earlier work
[12] = test system: mice; details: months of chronic treatment (Doze et al. 2009); cited from earlier work; remark: listed apart in the source
[13] = test system: brain α-adrenoceptors; details: cited from earlier work
[14] = test system: cortical α1-adrenoceptors; details: prazosin 5 mg/kg; cited from earlier work
[15] = test system: LC α1-adrenoceptors; test: Novel cage test after LC microinjection; type: in vivo, rat; details: for Gross movements: 15 min novel cage
[16] = test system: Fos expression in LC, PVH, lateral septal nucleus and NAC; details: stimulation or blockade of LC α1-receptors (Stone et al. 2011); cited from earlier work
[17] = test system: α1-adrenoceptors; details: cited from earlier work
[18] = test system: α2-adrenoceptors; details: cited from earlier work
[19] = test system: α2-adrenoceptors; details: atipamezole 0.5 mg/kg; cited from earlier work
[20] = Outside LC (n = 23), 3 nmoles/side
[21] = Within LC (n = 25), 3 nmoles/side
[22] = entire within LC group vs vehicle, 3 nmoles/side

## CC(C)(C)C(=O)Oc1cc(F)c(C(O)CN)cc1OC(=O)C(C)(C)C (stereo not drawn) [dp6FNE, Dipivalyl-6-fluoronorepinephrine]
[1]
  time spent in the open arms: increased time spent
[2]
  passage of the blood brain barrier / uptake by the brain: does pass the blood brain barrier
[3]; acute i.p. administration
  onset of action compared with available antidepressants: significantly faster onset of action
[3]; acute i.p., dp6FNE 1, 3, 10 mg/kg with prazosin 0.2 mg/kg, DMI 10 mg/kg, FIG. 5
  effect in repeated open-space swim test: significant antidepressant action
[3]; dp6FNE 0.3 mg/kg with prazosin 0.2 mg/kg, animals not pretreated with either antagonist
  immobility versus vehicle: significantly reduced immobility versus vehicle
[3]; dp6FNE 0.3 mg/kg with prazosin 0.2 mg/kg, animals not treated with either antagonist
  distance swum versus vehicle: significantly increased distances swum
[3]; i.p. 0, 1, 3, 10 mg/kg with phentolamine 1 mg/kg, 30 min before swim, Example 5, expected
  speed or efficacy compared with partial α1-agonists: more rapid or efficacious than the partial α1-agonists
[4]
  time spent in the lighted side: increased time spent
[5]
  home cage exploration / behavioral inhibition after handling and injection stress: same rescue of home cage exploration
[6]
  motor activity (quadrants entered): little or no effect on locomotor activity
  relative time in the center of the field: increased time in the center of the field
[7]; after repeated treatment, 0.5 mg/kg i.p. 11 daily treatments, no formal measures
  signs of toxicity (reduced arousal, disheveled fur coat): no obvious signs of toxicity
[7]; intracerebral 6FNE or peripheral dp6FNE, range of behavioral tests
  sedation: Sedation has not been observed
[8]; i.p. 1, 3 and 10 mg/kg, FIG. 5
  antidepressant action in tail suspension test: significant antidepressant action
[9]; acute i.p. dp6FNE with prazosin 0.2 mg/kg
  CMS reduction of sweetened milk intake: eliminates the CMS reduction of intake
[9]; acute i.p. dp6FNE
  hypophagia: significant hypophagia

## c1ccc(C2CC2)c(OCC2=NCCN2)c1 [cirazoline]
[10]
  anxiety measured by behavioral inhibition: failed to affect anxiety
[11]
  antidepressant effect: significant antidepressant effects in the forced swim test
[12]
  anxiety measured by behavioral inhibition: failed to affect anxiety
[5]
  home cage exploration / behavioral inhibition after handling and injection stress: not effective in reducing behavioral inhibition
[13]
  agonist efficacy: partial agonists

## COc1cc2nc(N3CCN(C(=O)c4ccco4)CC3)nc(N)c2cc1OC [prazosin]
[14]
  block of cortical α1-adrenoceptors by ex vivo binding: 30%
[3]
  overall effect of antagonist pretreatment on distance swum: significant overall decrease of distance swum
  overall effect of antagonist pretreatment on immobility: significant overall increase of immobility
[3]; prazosin alone 0.2 mg/kg
  effect of antagonist alone on TST or RFS measures: did not affect these measures

## COc1cc2nc(N3CCN(C(=O)C4CCCO4)CC3)nc(N)c2cc1OC (stereo not drawn) [terazosin]
[15]; [20]
  Cage midline crosses: 16.4 ± 1.5^c
  Time immobile (min): 2.2 ± 0.5^c min
  Gross movements: 123.5 ± 7.9^c
[15]; [21]
  Cage midline crosses: 9.2 ± 2.0^b,e
  Time immobile (min): 7.2 ± 1.6^b,d min
  Gross movements: 71.7 ± 11.7^a,d
[15]; bilaterally injected animals
  TI-: 7.4 ± 1.4 min
  percent decrease of GMs with respect to vehicle: 54.6±9.1%
  percent decrease of cage Xs with respect to vehicle: 53.7±12.1%
[15]; direct hits of LC
  percent depression of GMs compared to mean of the vehicle group: 63.5±7.2%
[15]; [22]
  increase of TI: 77 fold
  reduction of GMs: 54%
  reduction of cage Xs: 55%
[15]; injection within 200μ of LC
  percent depression of GMs compared to mean of the vehicle group: 54.0±7.5%
[15]; injection within 500μ of LC
  percent depression of GMs compared to mean of the vehicle group: 45.6±7.0%
[15]; unilaterally injected animals
  TI-: 6.1 ± 1.7 min
  percent decrease of GMs with respect to vehicle: 50.5±11.1%
  percent decrease of cage Xs with respect to vehicle: 52.1±16.5%
[16]
  neural activity of the LC measured from c-Fos expression: excitation of virtually every neuron of the nucleus
[17]
  affinity for respective receptor: low nanomolar affinities
[8]
  effect of coinfused antagonist on anti-immobility effect of 6FNE: significantly increased immobility when coinfused with 6FNE
  effect of antagonist alone on immobility (antagonist+vehicle versus vehicle-only): significantly increased immobility in the vehicle-treated animals

## Cc1cccc([C@H](C)c2cnc[nH]2)c1C [dexmedetomidine]
[18]
  affinity for respective receptor: low nanomolar affinities
[3]; 5th swim, acute ivt. 6FNE or DEX, DMI subacute i.p. 10 mg/kg
  distance swum versus vehicle: failed to have an overall significant effect
[3]; 5th swim, acute ivt. 6FNE or DEX, DMI subacute i.p. 10 mg/kg, 10 mg/kg
  immobility versus vehicle: only 6FNE was effective
[3]; 5th swim, acute ivt. 6FNE or DEX, DMI subacute i.p. 10 mg/kg, listed as DEX, 10 mg/kg
  immobility versus vehicle: failed to have an overall significant effect on immobility
[3]; DEX 0.04 nmoles ivt.
  immobility at single dose: borderline significant reduction in immobility
[8]
  immobility versus vehicle: equally effective
[8]; listed as DEX
  immobility versus vehicle: significant dose-dependent decrease in immobility

## CCC1(c2cnc[nH]2)Cc2ccccc2C1 [atipamezole]
[18]
  affinity for respective receptor: low nanomolar affinities
[3]
  overall effect of antagonist pretreatment on distance swum: no significant overall action
  overall effect of antagonist pretreatment on immobility: no significant overall effect
[19]
  blockade of sedative and hypothermic effects of a low dose of dexmedetomidine: approximately 70%
[8]
  effect of coinfused antagonist on anti-immobility effect of 6FNE: totally abolished the effect of 6FNE
  effect of antagonist alone on immobility (antagonist+vehicle versus vehicle-only): had no effect in this group
